Data: US20200347043A1, “MODULATORS OF THE INTEGRATED STRESS PATHWAY” (Calico Life Sciences LLC, priority 2019, published 2020)
pEC50: −log10 of the molar value.

The molecules below were run on HEK293T cells carrying the ATF4 luciferase reporter (assay: ATF4-Luc assay (in vitro model of VWMD)). Settings: Homo sapiens, HEK-293T, 1 μg/mL tunicamycin, 7 hours, One Glo luminescence.
Assay type: cell-based, human
Method in brief: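 Tunicamycin (1 μg/mL) stress with co-added compound for 7 hours in HEK293T cells stably carrying an ATF4 5′-UTR–luciferase reporter. EC50 values come from the luminescent signal (One Glo).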

| SMILES | pEC50 |
| --- | --- |
| O=C(NC12CCC(NC(=O)[C@H]3C[C@@H](OC(F)(F)F)C3)(CC1)[C@@H](O)C2)c1cc(=O)c2cc(Cl)ccc2o1 [Compound 146, 6-chloro-N-[(3S)-3-hydroxy-4-{[(1s,3R)-3-(trifluoromethoxy)cyclobutane-1-carbonyl]amino}bicyclo[2.2.2]octan-1-yl]-4-oxo-4H-1-benzopyran-2-carboxamide] | 6.30 to 6.60 |
| O=C1CC(C(=O)NC23CC(n4cnc(-c5ccc(F)c(F)c5)c4)(C2)C3)Oc2ccc(Cl)cc21 (stereo not shown) [Compound 148, 6-chloro-N-{3-[4-(3,4-difluorophenyl)-1H-imidazol-1-yl]bicyclo[1.1.1]pentan-1-yl}-4-oxo-3,4-dihydro-2H-1-benzopyran-2-carboxamide] | 7.30 to 8.00 |
| O=C1CC(C(=O)NC23CCC(c4nnc(C5CC(OC(F)(F)F)C5)o4)(C2)C3)Oc2ccc(Cl)cc21 (stereo not shown) [Compound 150, 6-chloro-4-oxo-N-(4-{5-[(1s,3s)-3-(trifluoromethoxy)cyclobutyl]-1,3,4-oxadiazol-2-yl}bicyclo[2.1.1]hexan-1-yl)-3,4-dihydro-2H-1-benzopyran-2-carboxamide] | < 5.70 |
| O=C1CC(C(=O)N[C@@H]2CC[C@@H](c3nnc([C@H]4C[C@@H](OC(F)(F)F)C4)o3)OC2)Oc2ccc(Cl)cc21 (stereo partly drawn) [Compound 152, 6-chloro-4-oxo-N-[(3R,6)-6-{5-[(1s,3R)-3-(trifluoromethoxy)cyclobutyl]-1,3,4-oxadiazol-2-yl}oxan-3-yl]-3,4-dihydro-2H-1-benzopyran-2-carboxamide] | 7.30 to 8.00 |
| O=C(COc1ccc(Cl)c(F)c1)N[C@@H]1CC[C@@H](c2nnc([C@H]3C[C@@H](OC(F)(F)F)C3)o2)OC1 [Compound 153, 2-(4-chloro-3-fluorophenoxy)-N-[(3R,6S)-6-{5-[(1s,3R)-3-(trifluoromethoxy)cyclobutyl]-1,3,4-oxadiazol-2-yl}oxan-3-yl]acetamide] | > 8.00 |
| O=C(NC12CC(C3NC(COc4ccc(Cl)c(F)c4)=NO3)(C1)C2)[C@H]1C[C@@H](O)c2cc(Cl)ccc2O1 (stereo partly drawn) [Compound 154, (2R,4R)-6-chloro-N-(3-{3-[(4-chloro-3-fluorophenoxy)methyl]-4,5-dihydro-1,2,4-oxadiazol-5-yl}bicyclo[1.1.1]pentan-1-yl)-4-hydroxy-3,4-dihydro-2H-1-benzopyran-2-carboxamide] | 7.30 to 8.00 |
| O=C1C[C@H](C(=O)NC23CC(c4nc(COc5ccc(Cl)c(F)c5)no4)(C2)C3)Oc2ccc(Cl)cc21 [Compound 155, (2R)-6-chloro-N-(3-{3-[(4-chloro-3-fluorophenoxy)methyl]-1,2,4-oxadiazol-5-yl}bicyclo[1.1.1]pentan-1-yl)-4-oxo-3,4-dihydro-2H-1-benzopyran-2-carboxamide] | 7.30 to 8.00 |
| O=C(NC12CC(c3nc(COc4ccc(Cl)c(F)c4)no3)(C1)C2)[C@H]1C[C@@H](O)c2cc(Cl)ccc2O1 [Compound 156, (2R,4R)-6-chloro-N-(3-{3-[(4-chloro-3-fluorophenoxy)methyl]-1,2,4-oxadiazol-5-yl}bicyclo[1.1.1]pentan-1-yl)-4-hydroxy-3,4-dihydro-2H-1-benzopyran-2-carboxamide] | > 8.00 |
| O=C(CO[C@H]1C[C@@H](OC(F)(F)F)C1)NC12CCC(C(=O)NCc3ccc(C(F)(F)F)cn3)(CC1)CC2 [Compound 157] | < 5.70 |
| O=C(CO[C@H]1C[C@@H](OC(F)(F)F)C1)N[C@H]1CC[C@H](C(=O)NCc2ccc(C(F)(F)F)cn2)CC1 [Compound 158, (1r,4r)-4-(2-{[(1s,3s)-3-(trifluoromethoxy)cyclobutyl]oxy}acetamido)-N-([5-(trifluoromethyl)pyridin-2-yl]methyl)cyclohexane-1-carboxamide] | < 5.70 |
| O=C(CO[C@H]1C[C@@H](OC(F)(F)F)C1)NC12CC(NC(=O)[C@H]3CC(=O)c4cc(Cl)ccc4O3)(C1)C2 [Compound 162, (2R)-6-chloro-4-oxo-N-[3-(2-{[cis-3-(trifluoromethoxy)cyclobutyl]oxy}acetamido)bicyclo[1.1.1]pentan-1-yl]-3,4-dihydro-2H-1-benzopyran-2-carboxamide] | 7.30 to 8.00 |
| O=C1CC(C(=O)NC23CCC(c4nnc([C@H]5C[C@@H](OC(F)(F)F)C5)o4)(CC2)OC3)Oc2ccc(Cl)cc21 (stereo partly shown) [Compound 163] | 7.30 to 8.00 |
| O=C(CO[C@H]1C[C@@H](OC(F)(F)F)C1)NC12CC(NC(=O)[C@H]3C[C@@H](O)c4cc(Cl)ccc4O3)(C1)C2 [Compound 164, (2R,4R)-6-chloro-4-hydroxy-N-[3-(2-{[cis-3-(trifluoromethoxy)cyclobutyl]oxy}acetamido)bicyclo[1.1.1]pentan-1-yl]-3,4-dihydro-2H-1-benzopyran-2-carboxamide] | > 8.00 |
| O=C(NC12CCC(c3nnc([C@H]4C[C@@H](OC(F)(F)F)C4)o3)(CC1)OC2)C1CC(O)c2cc(Cl)ccc2O1 (stereo partly shown) [Compound 165] | 7.30 to 8.00 |
| O=C1CC(C(=O)NC23CCC(c4nnc([C@H]5C[C@@H](OC(F)(F)F)C5)o4)(CC2)CC3)Oc2ccc(Cl)cc21 (stereo partly drawn) [Compound 167, 6-chloro-4-oxo-N-(4-{5-[cis-3-(trifluoromethoxy)cyclobutyl]-1,3,4-oxadiazol-2-yl}bicyclo[2.2.2]octan-1-yl)-3,4-dihydro-2H-1-benzopyran-2-carboxamide] | 7.30 to 8.00 |
| O=C(N[C@@H]1CC[C@@H](c2nnc([C@H]3C[C@@H](OC(F)(F)F)C3)o2)OC1)[C@H]1C[C@@H](O)c2cc(Cl)ccc2O1 [Compound 169, (2R,4R)-6-chloro-4-hydroxy-N-[(3R,6S)-6-{5-[cis-3-(trifluoromethoxy)cyclobutyl]-1,3,4-oxadiazol-2-yl}oxan-3-yl]-3,4-dihydro-2H-1-benzopyran-2-carboxamide] | > 8.00 |
| O=C(N[C@H]1CC[C@H](C(=O)NCc2ccc(C(F)(F)F)cn2)CC1)[C@@H]1C[C@@H](O)c2cc(Cl)ccc2O1 [Compound 172, (2S,4R)-6-chloro-4-hydroxy-N-[trans-4-({[5-(trifluoromethyl)pyridin-2-yl]methyl}carbamoyl)cyclohexyl]-3,4-dihydro-2H-1-benzopyran-2-carboxamide] | 7.30 to 8.00 |
| O=C1C[C@H](C(=O)N[C@H]2CC[C@H](C(=O)N3CC(c4ccc(Cl)cc4)C3)CC2)Oc2ccc(Cl)cc21 [Compound 173, (2R)-6-chloro-N-{trans-4-[3-(4-chlorophenyl)azetidine-1-carbonyl]cyclohexyl}-4-oxo-3,4-dihydro-2H-1-benzopyran-2-carboxamide] | 7.30 to 8.00 |
| O=C(N[C@H]1CC[C@H](C(=O)N2CC(c3ccc(Cl)cc3)C2)CC1)[C@H]1C[C@@H](O)c2cc(Cl)ccc2O1 [Compound 174, (2R,4R)-6-chloro-N-{trans-4-[3-(4-chlorophenyl)azetidine-1-carbonyl]cyclohexyl}-4-hydroxy-3,4-dihydro-2H-1-benzopyran-2-carboxamide] | > 8.00 |
| O=C1C[C@@H](C(=O)NC23CC(n4cnc(-c5ccc(F)c(F)c5)c4)(C2)C3)Oc2ccc(Cl)cc21 [Compound 175, (2S)-6-chloro-N-{3-[4-(3,4-difluorophenyl)-1H-imidazol-1-yl]bicyclo[1.1.1]pentan-1-yl}-4-oxo-3,4-dihydro-2H-1-benzopyran-2-carboxamide] | 6.60 to 7.30 |
| O=C1C[C@H](C(=O)NC23CC(n4cnc(-c5ccc(F)c(F)c5)c4)(C2)C3)Oc2ccc(Cl)cc21 [Compound 176, (2R)-6-chloro-N-{3-[4-(3,4-difluorophenyl)-1H-imidazol-1-yl]bicyclo[1.1.1]pentan-1-yl}-4-oxo-3,4-dihydro-2H-1-benzopyran-2-carboxamide] | 7.30 to 8.00 |
| O=C1C[C@@H](C(=O)N[C@@H]2CC[C@@H](c3nnc([C@H]4C[C@@H](OC(F)(F)F)C4)o3)OC2)Oc2ccc(Cl)cc21 [Compound 177, (2S)-6-chloro-4-oxo-N-[(3R,6S)-6-{5-[cis-3-(trifluoromethoxy)cyclobutyl]-1,3,4-oxadiazol-2-yl}oxan-3-yl]-3,4-dihydro-2H-1-benzopyran-2-carboxamide] | 6.60 to 7.30 |
| O=C(N[C@H]1CC[C@H](C(=O)N2CC(c3ccc(Cl)cc3)C2)CC1)[C@@H]1C[C@@H](O)c2cc(Cl)ccc2O1 [Compound 178] | 7.30 to 8.00 |
| O=C1C[C@H](C(=O)NC23CC(N4CCN(c5ccc(Cl)cc5)C4=O)(C2)C3)Oc2ccc(Cl)cc21 [Compound 179, (2R)-6-chloro-N-{3-[3-(4-chlorophenyl)-2-oxoimidazolidin-1-yl]bicyclo[1.1.1]pentan-1-yl}-4-oxo-3,4-dihydro-2H-1-benzopyran-2-carboxamide] | 6.60 to 7.30 |
| O=C(NC12CC(n3cnc(-c4ccc(F)c(F)c4)c3)(C1)C2)[C@@H]1C[C@H](O)c2cc(Cl)ccc2O1 [Compound 180, (2S,4S)-6-chloro-N-{3-[4-(3,4-difluorophenyl)-1H-imidazol-1-yl]bicyclo[1.1.1]pentan-1-yl}-4-hydroxy-3,4-dihydro-2H-1-benzopyran-2-carboxamide] | 6.60 to 7.30 |
| O=C(NC12CC(n3cnc(-c4ccc(F)c(F)c4)c3)(C1)C2)[C@H]1C[C@@H](O)c2cc(Cl)ccc2O1 [Compound 181, (2R,4R)-6-chloro-N-{3-[4-(3,4-difluorophenyl)-1H-imidazol-1-yl]bicyclo[1.1.1]pentan-1-yl}-4-hydroxy-3,4-dihydro-2H-1-benzopyran-2-carboxamide] | > 8.00 |
| O=C(N[C@H]1CC[C@H](C(=O)N2CC(c3ccccc3)C2)CC1)[C@H]1C[C@@H](O)c2cc(Cl)ccc2O1 [Compound 182, (2R,4R)-6-chloro-4-hydroxy-N-[trans-4-(3-phenylazetidine-1-carbonyl)cyclohexyl]-3,4-dihydro-2H-1-benzopyran-2-carboxamide] | < 5.70 |
| O=C(NC12CC(N3CCN(c4ccc(Cl)cc4)C3=O)(C1)C2)[C@H]1C[C@@H](O)c2cc(Cl)ccc2O1 [Compound 183, (2R,4R)-6-chloro-N-{3-[3-(4-chlorophenyl)-2-oxoimidazolidin-1-yl]bicyclo[1.1.1]pentan-1-yl}-4-hydroxy-3,4-dihydro-2H-1-benzopyran-2-carboxamide] | 7.30 to 8.00 |
